These results are taken from PubChem BioAssay (NCI).

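All cell lines were grown in 96-well plates and treated with compound for 48 hours. TGI denotes the concentration required for complete inhibition of growth.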

Some test systems named below: A549 NSCLC; CAKI-1 renal; HCC-2998 colon; HT29 colon; IGROV1 ovarian; K-562 leukemia; MALME-3M melanoma; MCF7 breast; MDA-N; MOLT-4 leukemia; NCI/ADR-RES ovarian; RPMI-8226 leukemia; SF-268 CNS; SF-539 CNS; SK-MEL-28 melanoma; SW-620 colon; T-47D breast; TK-10 renal; UACC-257 melanoma.
Common to all, as to assay: growth of human tumour cells (NCI), 48 h

Turning to `O=[N+]([O-])/C(C(Cl)=C(Cl)Cl)=C(/Nc1ccccc1)Sc1ccccc1`, the TGI with A549 NSCLC came to 50.2 µM; in the assay on CAKI-1 renal, 29.5 µM; in the assay with HCC-2998 colon, 32.8 µM; with HT29 colon, 48.7 µM; with IGROV1 ovarian, 48.1 µM; with K-562 leukemia, 41.6 µM. For the same molecule, the TGI in the assay on MALME-3M melanoma is 31.8 µM; in the assay with MCF7 breast, 75.2 µM; with MDA-N it was 56.3 µM; in the assay with MOLT-4 leukemia, 46.7 µM; in the assay with NCI/ADR-RES ovarian it was 78.9 µM; in the assay with RPMI-8226 leukemia it was 66.1 µM. Besides, the TGI in the assay with SF-268 CNS was 28.2 µM; in the assay on SF-539 CNS, 52.3 µM; with SK-MEL-28 melanoma it was 36 µM; with SW-620 colon, 51.1 µM; with T-47D breast, 59.8 µM; with TK-10 renal it was 59.8 µM. Also, the TGI with UACC-257 melanoma stood at 35.6 µM.

As to `CC/C(N)=N\NC(=O)OC(C)(C)C`, the TGI with A549 NSCLC, in the assay with CAKI-1 renal, with HCC-2998 colon, in the assay on HT29 colon, in the assay with IGROV1 ovarian and in the assay on K-562 leukemia was above 100 µM each time. Moreover, the TGI in the assay on MALME-3M melanoma, in the assay on MCF7 breast, with MDA-N, in the assay on MOLT-4 leukemia, in the assay with NCI/ADR-RES ovarian and in the assay on RPMI-8226 leukemia was above 100 µM in each case. For the same molecule, the TGI with SF-268 CNS, in the assay with SF-539 CNS, in the assay on SK-MEL-28 melanoma, with SW-620 colon, with T-47D breast and in the assay with TK-10 renal was above 100 µM in each case. This molecule also returned a TGI in the assay with UACC-257 melanoma above 100 µM.

For `CCCCCCCCCCCCOP(=O)(O)OP(=O)(O)OCC1OC(n2cc(C)c(=O)[nH]c2=O)CC1O` (stereo not drawn), the TGI with A549 NSCLC, in the assay on CAKI-1 renal, with HCC-2998 colon, with HT29 colon, in the assay on IGROV1 ovarian and with K-562 leukemia was above 100 µM throughout. Besides, the TGI with MALME-3M melanoma, in the assay with MCF7 breast, with MDA-N, in the assay on MOLT-4 leukemia, in the assay with NCI/ADR-RES ovarian and in the assay with RPMI-8226 leukemia was above 100 µM in each case. The TGI with SF-268 CNS, with SF-539 CNS, with SK-MEL-28 melanoma, with SW-620 colon, in the assay with T-47D breast and in the assay on TK-10 renal was above 100 µM throughout. The TGI in the assay on UACC-257 melanoma is above 100 µM.

Regarding `O=C(O)c1ccc(N/C(=C(/C(Cl)=C(Cl)Cl)[N+](=O)[O-])n2nnc3ccccc32)cc1`, the TGI in the assay with A549 NSCLC, with CAKI-1 renal, in the assay with HCC-2998 colon, in the assay with HT29 colon, in the assay with K-562 leukemia and in the assay with MALME-3M melanoma was above 100 µM in each case. Besides, the TGI in the assay with MCF7 breast, in the assay with MDA-N, in the assay with MOLT-4 leukemia, in the assay on NCI/ADR-RES ovarian, in the assay with RPMI-8226 leukemia and in the assay on SF-268 CNS was above 100 µM in each case. Besides, the TGI in the assay with SF-539 CNS, with SK-MEL-28 melanoma, in the assay on SW-620 colon, in the assay on T-47D breast and in the assay with UACC-257 melanoma was above 100 µM in each case.

`Cc1ccc(/C=C2/N=C(N/N=C\c3ccccc3)NC2=O)cc1`: the TGI in the assay on A549 NSCLC was above 100 µM; with CAKI-1 renal, above 100 µM; with HCC-2998 colon it was 72.1 µM; in the assay with HT29 colon it was above 100 µM; with IGROV1 ovarian it was above 100 µM; in the assay on K-562 leukemia, above 100 µM. Moreover, the TGI in the assay with MALME-3M melanoma was above 100 µM; in the assay with MCF7 breast, above 100 µM; with MDA-N, 88.2 µM; in the assay with MOLT-4 leukemia it was 72.2 µM; with NCI/ADR-RES ovarian it was above 100 µM; in the assay on RPMI-8226 leukemia, 48.3 µM. For the same molecule, the TGI in the assay with SF-268 CNS, in the assay with SF-539 CNS, with SK-MEL-28 melanoma, in the assay with SW-620 colon, with T-47D breast and in the assay on TK-10 renal was above 100 µM in each case. The molecule also returned a TGI with UACC-257 melanoma above 100 µM.

As for `O=[N+]([O-])C(C=C(n1nnc2ccccc21)n1nnc2ccccc21)=C(n1nnc2ccccc21)n1nnc2ccccc21`, the TGI in the assay on A549 NSCLC, in the assay with CAKI-1 renal, with HCC-2998 colon, in the assay with HT29 colon, in the assay on IGROV1 ovarian and in the assay with K-562 leukemia was above 100 µM in each case. In addition, the TGI with MALME-3M melanoma is above 100 µM; in the assay on MCF7 breast, above 100 µM; with MDA-N, above 100 µM; in the assay on MOLT-4 leukemia, 93.4 µM; in the assay on NCI/ADR-RES ovarian, above 100 µM; with RPMI-8226 leukemia, above 100 µM. In addition, the TGI with SF-268 CNS, in the assay on SF-539 CNS, in the assay with SW-620 colon, in the assay on T-47D breast and in the assay with TK-10 renal was above 100 µM throughout.

In the case of `O=c1[nH]nc(-c2ccccc2)n1-n1cnnc1`, the TGI with A549 NSCLC, in the assay with CAKI-1 renal, in the assay on HCC-2998 colon, with HT29 colon, with IGROV1 ovarian and in the assay on K-562 leukemia was above 100 µM each time. Besides, the TGI in the assay on MALME-3M melanoma, in the assay on MCF7 breast, with MDA-N, in the assay on MOLT-4 leukemia, with NCI/ADR-RES ovarian and in the assay with RPMI-8226 leukemia was above 100 µM each time. The TGI with SF-268 CNS, with SF-539 CNS, in the assay on SW-620 colon, in the assay on T-47D breast, in the assay on TK-10 renal and in the assay on UACC-257 melanoma was above 100 µM in each case.
